Measurements from article PMC8745345, “Hydroxy Pentacyclic Triterpene Acid, Kaempferol, Inhibits the Human 5-Hydroxytryptamine Type 3A Receptor Activity” (International Journal of Molecular Sciences, 2022).
Residue numbers refer to the chain shown, from its start.

Tests used:
[1] = target: T1, human 5-HT3A receptor I180A mutant (Homo sapiens, UniProt P46098, V202A); assay: Two-electrode voltage clamp, I5-HT inhibition, I180A mutant; assay type: cell-based
T1 sequence (P46098 24-478 V202A): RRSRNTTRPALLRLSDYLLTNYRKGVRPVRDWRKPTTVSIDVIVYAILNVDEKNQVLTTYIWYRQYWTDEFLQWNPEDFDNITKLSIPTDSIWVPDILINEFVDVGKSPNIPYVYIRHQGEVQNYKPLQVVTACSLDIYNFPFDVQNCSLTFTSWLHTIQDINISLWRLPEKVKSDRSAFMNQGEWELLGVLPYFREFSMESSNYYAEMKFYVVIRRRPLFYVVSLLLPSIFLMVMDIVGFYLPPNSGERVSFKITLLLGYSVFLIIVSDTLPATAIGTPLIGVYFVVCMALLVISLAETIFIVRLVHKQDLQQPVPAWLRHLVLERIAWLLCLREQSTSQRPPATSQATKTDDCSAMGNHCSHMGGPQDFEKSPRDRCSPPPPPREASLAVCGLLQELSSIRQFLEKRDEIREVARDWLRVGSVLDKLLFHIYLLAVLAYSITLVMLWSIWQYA
Procedure: Human 5-HT3A receptor cDNA was linearized using restriction enzyme XhoI. In vitro transcription was performed using an mMESSAGE mMACHINE T7 Transcription Kit (Thermo Fisher Scientific, Waltham, MA, USA). The final mRNA product was dissolved in 1X Diethyl Pyrocarbonate (RNase-free water) at a final concentration of 1 μg/μL and kept in a deep-freezer at −80 °C until used.
Xenopus oocytes were used in this study as cells for expression of human 5-HT3A receptor. All female frogs used in this experiment were obtained from the Korean Xenopus Resource Center for Research (KXRCR000001). Xenopus management followed the guideline of Chonnam National University institution guidelines (CNU IACUC-YB-2016-07, July 2016). Xenopus oocytes were extracted during ice incubation state and isolated as single oocytes using collagenase II (2 mg/mL) in OR2 buffer (82.5 mM NaCl, 2 mM KCl, 1 mM MgCl2, 5 mM HEPES, pH 7.4). Isolated oocytes were incubated with ND96 incubation buffer (96 mM NaCl, 2 mM KCl, 1 mM MgCl2, 1.8 mM CaCl2, 5 mM HEPES, 2.5 mM sodium pyruvate, and […], pH 7.4) at 18 °C until the experiment was performed. Human 5-HT3A receptor mRNA was injected into oocytes using a nanoinjector (Drummond Scientific, Broomall, PA, USA) with a mineral-filled 10 μL microdispenser (VWR, Piscataway, NJ, USA).
To confirm the KAE activity on the human 5-HT3A receptor, a two-electrode voltage clamp (OC-725C; Warner Instruments, Hamden, CT, USA) with a Digitata 1550A was used. For the experiment, induced-inward current was converted to digital data with pClamp 10 software (Axon Instruments, Union City, CA, USA). […]
The voltage relationship experiment for confirming the relationship between induce-inward current and voltage, the voltage was varied from −80 mV to +60 mV using a ramp protocol. […] All recording data were analyzed using Clampfit 9.0 (Molecular Devices, San Jose, CA, USA). […]
All presented experiments were performed at least three times for scientific verification. […] Induced-inward current data were analyzed with SigmaPlot 10.0 software (Systat Software, Inc., San Jose, CA, USA). […]

[2] = target: T2, human 5-HT3A receptor D177A+F199A double mutant (Homo sapiens, UniProt P46098, D199A/F221A); assay: Two-electrode voltage clamp, I5-HT inhibition, D177A+F199A double mutant; assay type: cell-based
T2 sequence (P46098 24-478 D199A/F221A): T1 sequence (P46098 24-478 V202A) with D176A, A179V, F198A
Procedure: Xenopus oocytes were used in this study as cells for expression of human 5-HT3A receptor. All female frogs used in this experiment were obtained from the Korean Xenopus Resource Center for Research (KXRCR000001). […] Xenopus oocytes were extracted during ice incubation state and isolated as single oocytes using collagenase II (2 mg/mL) in OR2 buffer (82.5 mM NaCl, 2 mM KCl, 1 mM MgCl2, 5 mM HEPES, pH 7.4). Isolated oocytes were incubated with ND96 incubation buffer (96 mM NaCl, 2 mM KCl, 1 mM MgCl2, 1.8 mM CaCl2, 5 mM HEPES, 2.5 mM sodium pyruvate, and 50 mg/mL gentamycin, pH 7.4) at 18 °C until the experiment was performed. Human 5-HT3A receptor mRNA was injected into oocytes using a nanoinjector (Drummond Scientific, Broomall, PA, USA) with a mineral-filled 10 μL microdispenser (VWR, Piscataway, NJ, USA).
To confirm the KAE activity on the human 5-HT3A receptor, a two-electrode voltage clamp (OC-725C; Warner Instruments, Hamden, CT, USA) with a Digitata 1550A was used. For the experiment, induced-inward current was converted to digital data with pClamp 10 software (Axon Instruments, Union City, CA, USA). All experiments were performed at room temperature using an oocyte clamp equipped with Digidata. The membrane holding potential was −80 mV.
The voltage relationship experiment for confirming the relationship between induce-inward current and voltage, the voltage was varied from −80 mV to +60 mV using a ramp protocol. Each microelectrode was filled with 3 M KCl having a resistance of 0.2 MΩ. Serotonin and KAE applied in the experiment were diluted in ND96 bath solution (96 mM NaCl, 2 mM KCl, 1 mM MgCl2, 1.8 mM CaCl2, and 5 mM HEPES, pH 7.5) to specified concentration. The rate of application of the reagent was 2 mL per minute. All recording data were analyzed using Clampfit 9.0 (Molecular Devices, San Jose, CA, USA).
Point mutation was performed using Pfu DNA polymerase (Quikchange II Site-Directed Mutagenesis Kit). Chimeric primer design for PCR was performed under appropriate primer design guidelines. To remove methylated cDNA, Dpn I was used. Transformation of the mutated DNA used pGEM vector. pDNA was purified using a miniprep protocol. […]

SMILES: O=c1c(O)c(-c2ccc(O)cc2)oc2cc(O)cc(O)c12 [KAE, kaempferol]
- IC50 [1]: 45.5 ± 12.9 µM
- n (Hill coefficient) ([1]; I180A, −80 mV): 1.8 ± 0.6
- Emax ([1]; I180A, −80 mV, read-out: Vmax): 89.5 ± 12.1%
- n (Hill coefficient) ([2]; D177A+F199A, −80 mV): 1.3 ± 0.4
- IC50 ([2]; D177A+F199A, −80 mV, Table 1): 42.9 ± 10.2 µM
- Vmax ([2]; D177A+F199A, −80 mV, Table 1): 11.9 ± 1.2%
- Imax ([2]; D177 and F199 double-mutant, Figure 5D): 11.9 ± 1.2%
